Tests used:
hemoglobin = assay: Phase III clinical trial in patients with hemodialysis anemia; format: in vivo, human
Description: The incidence of adverse reactions when this drug was administered up to 24 weeks was 8.3% (2/24 cases).

[1] = Phase 1 oral iron interaction study, Cohort 3 (fasting): dried ferrous sulfate slow release; format: in vivo, human; settings: for AUC(0-inf) / AUC(0-t) / Cmax / half-life: male, human, plasma, oral; for AUC(0-inf): read-out: AUC(0-inf), LS geometric mean; for AUC(0-t): read-out: AUC(0-last), LS geometric mean; for Cmax: read-out: Cmax, LS geometric mean; for half-life: read-out: t1/2, LS geometric mean (converted)
Text: (§1) The study included 3 periods as follow: • Screening: performed within 4 weeks before the day of administration of the study drug. • Evaluation period: Cohort 1 was confined to the study site for 10-night, 11-day. Cohort 2 and Cohort 3 were confined to the study site for 7 nights and 8 days. • Post-administration tests: performed 3 days after administration of the last dose of the study drug.
In Cohort 3, 20 subjects were further randomized into 2 groups (10 subjects per group) and the evaluation period was divided into 2 periods during the study:
(§2) Administration of vadadustat tablets alone: after fasting for at least 10 hours, 1 vadadustat tablet (150 mg) would be taken orally with 200 mL of water (extra water may be drunk if more is needed when taking the tablet, and the extra volume would be recorded). Subjects would fast until the end of the collection of blood samples at 4 hours after administration of the study drug. Subjects would eat lunch over a period of 20 minutes after blood samples were collected at 4 hours after administration of the study drug. After lunch, subjects would fast until dinner, when they would eat dinner over a period of 20 minutes at 10 hours after administration of the study drug. Subjects would fast from dinner until breakfast the next morning.
as §2, with “and dried ferrous sulfate:” for “alone:”, “mg) and 2 tablets of dried ferrous sulfate (containing 210 mg of iron)” for “mg)”, “tablets,” for “tablet,”

[2] = [14C]-labeled Compound 1 650 mg metabolism and excretion; format: in vivo, human
Text: Compound 1 is metabolized via UGT, mainly producing O-glucuronide conjugates.
The urinary excretion rate of this drug and acyl glucuronide is less than 1% of the total radioactivity.

CYP2C9 = CYP2C9 (Homo sapiens, UniProt P11712); assay: CYP2C9 inhibition in vitro; format: in vitro ADME
Chain of CYP2C9 (P11712 whole entry): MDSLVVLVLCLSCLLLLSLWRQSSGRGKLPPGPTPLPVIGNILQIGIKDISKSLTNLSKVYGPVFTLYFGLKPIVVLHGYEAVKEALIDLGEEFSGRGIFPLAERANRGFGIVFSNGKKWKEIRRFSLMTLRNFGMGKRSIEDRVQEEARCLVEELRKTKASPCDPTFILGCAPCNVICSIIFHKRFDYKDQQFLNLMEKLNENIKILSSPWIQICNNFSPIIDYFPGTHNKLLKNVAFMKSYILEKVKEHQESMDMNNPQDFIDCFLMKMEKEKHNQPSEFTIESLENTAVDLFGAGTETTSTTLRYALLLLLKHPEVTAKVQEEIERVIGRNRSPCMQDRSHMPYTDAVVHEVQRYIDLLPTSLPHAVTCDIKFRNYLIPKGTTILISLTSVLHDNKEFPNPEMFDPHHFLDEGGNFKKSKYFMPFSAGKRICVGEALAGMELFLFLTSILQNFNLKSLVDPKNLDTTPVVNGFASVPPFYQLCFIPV

[3] = Phase I furosemide interaction study; format: in vivo, human; settings: furosemide 40 mg and vadadustat 600 mg once daily
Description: The study included 3 periods as follow: a 28-day screening period, 7-21 day in clinic period, and a 30-day follow up period post last dose.
On Days 3 to 6, subjects received vadadustat 600 mg (once daily).

[4] = test system: UGT1A1, UGT1A7, UGT1A8 and UGT1A9; assay: UGT isoforms generating O-glucuronide in vitro; format: in vitro ADME, human
human PHD3 = human PHD3 (Homo sapiens, UniProt Q9H6Z9); assay: PHD inhibitory action, PHD3; format: biochemical; settings: in vitro
Chain of human PHD3 (Q9H6Z9 whole entry): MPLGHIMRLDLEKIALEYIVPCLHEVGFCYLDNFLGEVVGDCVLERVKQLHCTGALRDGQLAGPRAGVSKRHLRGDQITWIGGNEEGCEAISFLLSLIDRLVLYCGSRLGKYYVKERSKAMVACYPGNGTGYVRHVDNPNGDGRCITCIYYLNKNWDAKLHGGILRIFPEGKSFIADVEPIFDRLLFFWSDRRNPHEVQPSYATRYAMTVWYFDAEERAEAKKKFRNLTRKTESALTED

[5] = Phase 1 oral iron interaction study, Cohort 2 (before meal): sucroferric oxyhydroxide; format: in vivo, human; settings: for AUC(0-inf) / AUC(0-t) / Cmax / half-life: male, human, plasma, oral; for AUC(0-inf): read-out: AUC(0-inf), LS geometric mean; for AUC(0-t): read-out: AUC(0-last), LS geometric mean; for Cmax: read-out: Cmax, LS geometric mean; for half-life: read-out: t1/2, LS geometric mean (converted)
Text: as §1
In Cohort 2, 20 subjects were further randomized into 2 groups (10 subjects per group) and the evaluation period was divided into 2 periods during the study:
as §2, with “10 hours and immediately before eating breakfast (5 minutes before starting the meal),” for “10 hours,”, “mg) will” for “mg) would”, “of water, then breakfast would be eaten over a period of 10 minutes” for “of water”, “recorded). After breakfast, subjects” for “recorded). Subjects”
Administration of vadadustat tablets and sucroferric oxyhydroxide: after fasting for at least 10 hours and immediately before eating breakfast (5 minutes before starting the meal), subjects would chew and swallow 2 tablets of sucroferric oxyhydroxide (containing 1000 mg of iron), then 1 vadadustat tablet (150 mg) would be taken orally with 200 mL of water, then breakfast would be eaten over a period of 10 minutes (extra water may be drunk if more is needed when taking the tablets, and the extra volume would be recorded). After breakfast, subjects would fast until the end of the collection of blood samples at 4 hours after administration of the study drug. After blood samples were collected at 4 hours after administration of the study drug and immediately before lunch, subjects would chew and swallow 2 tablets of sucroferric oxyhydroxide (containing 1000 mg of iron), then eat lunch over a period of 20 minutes. After lunch, subjects will fast until dinner, and immediately before dinner at 10 hours after administration of the study drug, chew and swallow 2 tablets of sucroferric oxyhydroxide (containing 1000 mg of iron), then eat dinner over a period of 20 minutes. Subjects would fast from dinner until breakfast the next morning.

[6] = 150 mg with dried ferrous sulfate slow release (210 mg iron), fasting
[7] = 150 mg with sucroferric oxyhydroxide (1000 mg iron), before meal

O=C(O)CNC(=O)c1ncc(-c2cccc(Cl)c2)cc1O [Compound 1, {[5-(3-chlorophenyl)-3-hydroxypyridine-2-carbonyl]amino}acetic acid]
incidence of adverse reactions (hemoglobin; administered up to 24 weeks): 8.3% | Average hemoglobin level, After administration (hemoglobin; at 20 and 24 weeks, 150-600 mg once daily, adjusted average ± standard error): 10.75 ± 0.19 | Average hemoglobin level, Before administration (hemoglobin; hemodialysis anemia patients, baseline, mean ± standard deviation): 9.30 ± 0.67 | Kel, LS geometric mean [1, 6]: 0.14 h⁻¹ | Kel, LS geometric mean ([1]; Compound 1 150 mg alone, fasting): 0.13 h⁻¹ | AUC(0-inf) ([1]; 150 mg): 128000 ng·h/mL | AUC(0-t) ([1]; 150 mg): 124000 ng·h/mL | Cmax ([1]; 150 mg): 26500 ng/mL | half-life ([1]; 150 mg): 5.17 h | AUC(0-inf) [1, 6]: 13200 ng·h/mL | AUC(0-t) [1, 6]: 12000 ng·h/mL | Cmax [1, 6]: 2140 ng/mL | half-life [1, 6]: 4.8 h | total radioactivity administered found in urine ([2]; single 650 mg [14C]-labeled, by 72 hours after administration): 58.9% | share of the total radioactivity (AUC0-∞) in plasma ([2]; single oral 650 mg [14C]-labeled Compound 1, healthy adult males): 75% | inhibitory effect on CYP2C9 (CYP2C9): inhibitory effect | serious TEAEs [3]: No serious TEAEs | UGT isoforms involved in the generation of O-glucuronide [4]: UGT1A1, UGT1A7, UGT1A8 and UGT1A9 | IC50 (human PHD3): 7.63 nM | Kel, LS geometric mean [5, 7]: 0.16 h⁻¹ | Kel, LS geometric mean ([5]; Compound 1 150 mg alone, before meal): 0.13 h⁻¹ | AUC(0-inf) ([5]; 150 mg): 99500 ng·h/mL | AUC(0-t) ([5]; 150 mg): 95700 ng·h/mL | Cmax ([5]; 150 mg): 15200 ng/mL | half-life ([5]; 150 mg): 5.17 h | AUC(0-inf) [5, 7]: 45700 ng·h/mL | AUC(0-t) [5, 7]: 44500 ng·h/mL | Cmax [5, 7]: 8810 ng/mL | half-life [5, 7]: 4.33 h

— patent US20230263786A1, “MODULATION OF DRUG-DRUG INTERACTIONS OF VADADUSTAT” (Akebia Therapeutics, Inc., priority 2020, published 2023)
